According to patent US20090270442A1, “POLYMORPHS OF HYDROCHLORIDE SALT OF 5-(3-(ETHYLSULFONYL)PHENYL)-3,8-DIMETHYL-N-(1-METHYLPIPERIDIN-4-YL)-9H-PYRIDO[2,3-B]INDOLE-7-CARBOXAMIDE AND METHODS OF USE THEREFOR” (TAKEDA PHARMACEUTICAL COMPANY LIMITED, priority 2008, published 2009):
In brackets after ≈: the same amount, converted by molar mass. Like-named read-outs stand apart in the source and are kept apart here.

Assays:
Assay type in all cases: physicochemical
[1] = Solvent screen: solubility of Compound 1 in various solvents (Table 16)
Procedure: Compound 1 as prepared by the method described in Example I may be used as the starting material for preparation of other polymorphic forms. The methods for testing the solubility of Compound 1 are described in Example 3, and the solubilities of Compound 1 in various solvents are summarized in Table 16. […] A solubility study of Compound 1 in various solvents was executed to select appropriate solvents for the further crystallizations. The material was placed in vials and the solvent was added in 250 μL portions. Solvents were picked based on differences in polarity and functionality and on their classification according to the International Conference on Harmonization (ICH), with preferences given to class II and class III solvents. After each addition of solvent, the vials were visually inspected for residual solids, and further heating to 55° C. to ensure dissolution.

[2] = Karl Fischer analysis (KF), water content; conditions: for water content by KF: theoretical for a monohydrate 3.2%
Procedure: Water content was determined by adding solid sample to the instrument with HYDRANAL-Coulomat AD. Micrograms of water were determined by coulometric titration.

[3] = Moisture-sorption analysis (adsorption/desorption, then drying 1 h at 80° C. and XRPD) (Table 40); conditions: for XRPD pattern after drying: dried for one hour at 80° C.
Procedure: Moisture-sorption experiments were carried out on three forms by first drying the sample at 0% RH and 25° C. until an equilibrium weight was reached or for a maximum of four hours. The sample was then subjected to an isothermal (25° C.) adsorption scan from 10 to 90% RH in steps of 10%. The sample was allowed to equilibrate to an asymptotic weight at each point for a maximum of four hours. Following adsorption, a desorption scan from […] to 0% RH (at 25° C.) was run in steps of −10%, again allowing a maximum of four hours for equilibration to an asymptotic weight. The sample was then dried for one hour at 80° C. and the resulting solid analyzed by XRPD.

[4] = Humidity chamber study at 0% and 95% RH, one week, XRPD and KF (Table 38); conditions: ambient temperature
Procedure: The 0% RH chamber was prepared with drierite and the 95% RH chamber was made with a saturated solution of Na2HPO4.12H2O in DI water. The chambers were equilibrated for >1 week prior to introducing samples. Samples were placed in Teflon-lined caps for scintillation vials and allowed to equilibrate for one week then analyzed by XRPD and KF to determine form and water content.
FIG. 60 summarizes the conversion of the forms of Compound 1 observed from slurry and humidity chamber studies.

[5] = Solubility study of Form A in DI water and 20 mM phosphate buffer (pH 3.2) (Table 37); conditions: for pH (final, 1 week): supernatant after 1 week slurry; for solubility at 1 day: read-out: Solubility mg/mL (1 day); for solubility at 1 week: read-out: Solubility mg/mL (1 week)
Procedure: The solubility measurement of Compound 1 Form A was performed in DI water (Milli-Q) and in 20 mM phosphate buffer (pH 3.2), see Table 37. Each vial was charged with 50-55 mg of Compound 1 and 1 mL of the corresponding solvent.
Both slurries were stirred at room temperature for approximately 19 hours. An aliquot (0.2 mL) was taken from each sample for the solubility determination and XRPD test. […] Both slurries were allowed to stir for an additional 6 days at room temperature. The pH of the supernatant liquid and solubility were determined following the 1 week slurry.

[6] = Drying study of Form A under vacuum at 40-85° C., XRPD and OVI (Table 39)
Procedure: Approximately 100 mg of sample was weighed into an individual 20-mL headspace vial and 5 mL of DMSO added. The vial was then sealed and gentle shaking/vortexing was used to ensure sample was entirely dissolved. Blank samples were prepared by transferring 5.0 mL of DMSO into a 20-mL headspace vial and then sealed. Standards were prepared using stock solutions in DMSO. Compound 1 (4.08 g, Form A) was dried under vacuum at 40° C. overnight. A small sample (˜200 mg) was taken for XRPD and OVI tests. The rest of the material was further dried under vacuum at 55° C. overnight. A second sample (˜200 mg) was taken for XRPD and OVI tests. The oven temperature was increased to 70° C. and the material was further dried under vacuum at 70° C. overnight. A third sample (˜200 mg) was taken for XRPD and OVI tests. The oven temperature was then increased to 85° C. and the material was further dried under vacuum over weekend. Analysis by XRPD and OVI was completed as shown in Table 39 along with experimental details.

[7] = 1 week slurry experiments in water, IPA, EtOAc, MeCN, EtOH and dioxane, form by XRPD (Table 34); conditions: for form after slurry in non-aqueous solvents: solvents other than water; for form after slurry in non-aqueous solvents / form isolated after slurry in water: room temperature, one week; for Form (1 wk): RT, resulting form by XRPD
Procedure: Each vial was charged with approximately 25-30 mg of API and 1 mL of the corresponding solvent, followed by stirring at room temperature for one week. […] The obtained solids were isolated by filtration, dried under vacuum at room temperature and analyzed by XRPD.

[8] = MeCN/water slurry experiments of Forms A and C at ambient temperature (Table 35); conditions: MeCN/water at different ratios
Procedure: Slurry experiments of Compound 1, Forms A and C, were conducted in mixtures of MeCN and water. Each vial was charged with approximately 40 mg of Compound 1 (pure Form A, pure Form C, or 50:50 mixtures) and 2 mL of MeCN/water mixture in a 1:9, 1:1, and 9:1 ratio. […] All samples were stirred at room temperature for approximately 24 hours. An aliquot (1 mL) of the suspension was taken from the slurries (samples #1, 3, 4, 6, 7 and 9) for determination of form by XRPD. All aliquots were filtered and dried in vacuo at 30 mm Hg and ambient temperature. All samples were stirred at ambient temperature for an additional six days, filtered, dried, and again the solid form and filterability were determined.

[9] = 20 mM phosphate buffer slurry, room temperature
[10] = DI water slurry, room temperature

## CCS(=O)(=O)c1cccc(-c2cc(C(=O)NC3CCN(C)CC3)c(C)c3[nH]c4ncc(C)cc4c23)c1.Cl [Compound 1, 5-(3-(ethylsulfonyl)phenyl)-3,8-dimethyl-N-(1-methylpiperidin-4-yl)-9H-pyrido[2,3-b]indole-7-carboxamide hydrochloride]
[1]; 55 °C, thermodynamic from solid, solvent water, Temp 55, Soluble No, read-out: Conc.
  solubility: ≤ 600 µg/mL
[1]; in acetone, MeCN, MTBe, EtOAc, IPAc, IPA, THF, 2-Me-THF, DCM, MEK, cyclohexane, heptane and water
  solubility: Poor solubility
[1]; in dioxane, MeOH, DMF, DMA, NMP, AcOH and EtOH
  solubility: Good solubility
[1]; solvent 2-Me-THF, 0.4 mg/mL, Temp 55
  Soluble: No
[1]; solvent 2-Me-THF, Temp 55, Soluble No
  Conc.: 400 µg/mL
[1]; solvent AcOH, >9.2 mg/mL, Temp RT
  Soluble: Yes
[1]; solvent AcOH, Temp RT, Soluble Yes
  Conc.: >9200 µg/mL
[1]; solvent Acetone, 0.3 mg/mL, Temp 55
  Soluble: No
[1]; solvent Acetone, Temp 55, Soluble No
  Conc.: 300 µg/mL
[1]; solvent Chloroform, >8.4 mg/mL, Temp RT
  Soluble: Yes
[1]; solvent Chloroform, Temp RT, Soluble Yes
  Conc.: >8400 µg/mL
[1]; solvent DCM, 0.8 mg/mL, Temp RT
  Soluble: No
[1]; solvent DCM, Temp RT, Soluble No
  Conc.: 800 µg/mL
[1]; solvent DMA, >9.2 mg/mL, Temp RT
  Soluble: Yes
[1]; solvent DMA, Temp RT, Soluble Yes
  Conc.: >9200 µg/mL
[1]; solvent DMF, >10.4 mg/mL, Temp RT
  Soluble: Yes
[1]; solvent DMF, Temp RT, Soluble Yes
  Conc.: >10400 µg/mL
[1]; solvent Dioxane, 0.7 mg/mL, Temp 55
  Soluble: Yes
[1]; solvent Dioxane, Temp 55, Soluble Yes
  Conc.: 700 µg/mL
[1]; solvent EtOAc, 0.4 mg/mL, Temp 55
  Soluble: No
[1]; solvent EtOAc, Temp 55, Soluble No
  Conc.: 400 µg/mL
[1]; solvent EtOH, 1.2 mg/mL, Temp 55
  Soluble: Yes
[1]; solvent EtOH, Temp 55, Soluble Yes
  Conc.: 1200 µg/mL
[1]; solvent Heptane, 0.4 mg/mL, Temp 55
  Soluble: No
[1]; solvent Heptane, Temp 55, Soluble No
  Conc.: 400 µg/mL
[1]; solvent IPA, 0.5 mg/mL, Temp 55
  Soluble: No
[1]; solvent IPA, Temp 55, Soluble No
  Conc.: 500 µg/mL
[1]; solvent IPAC, 0.5 mg/mL, Temp 55
  Soluble: No
[1]; solvent IPAC, Temp 55, Soluble No
  Conc.: 500 µg/mL
[1]; solvent MEK, 0.6 mg/mL, Temp 55
  Soluble: No
[1]; solvent MEK, Temp 55, Soluble No
  Conc.: 600 µg/mL
[1]; solvent MTBE, 0.3 mg/mL, Temp 55
  Soluble: No
[1]; solvent MTBE, Temp 55, Soluble No
  Conc.: 300 µg/mL
[1]; solvent MeCN, 0.5 mg/mL, Temp 55
  Soluble: No
[1]; solvent MeCN, Temp 55, Soluble No
  Conc.: 500 µg/mL
[1]; solvent MeOH, >10.0 mg/mL, Temp RT
  Soluble: Yes
[1]; solvent MeOH, Temp RT, Soluble Yes
  Conc.: >10000 µg/mL
[1]; solvent NMP, >10.4 mg/mL, Temp RT
  Soluble: Yes
[1]; solvent NMP, Temp RT, Soluble Yes
  Conc.: >10400 µg/mL
[1]; solvent THF, 0.4 mg/mL, Temp 55
  Soluble: No
[1]; solvent THF, Temp 55, Soluble No
  Conc.: 400 µg/mL
[1]; solvent Toluene, 0.4 mg/mL, Temp 55
  Soluble: No
[1]; solvent Toluene, Temp 55, Soluble No
  Conc.: 400 µg/mL
[1]; solvent c-Hexane, 0.5 mg/mL, Temp 55
  Soluble: No
[1]; solvent c-Hexane, Temp 55, Soluble No
  Conc.: 500 µg/mL
[1]; solvent water, 0.6 mg/mL, Temp 55
  Soluble: No

## CCS(=O)(=O)c1cccc(-c2cc(C(=O)NC3CCN(C)CC3)c(C)c3[nH]c4ncc(C)cc4c23)c1 [Form A]
[2]; another sample, after heating
  water content by KF after heating: 3.0%
[2]; another sample, before heating
  water content by KF before heating: 3.1%
[2]
  water content by KF: 3.7%
[3]; 25° C.
  stability of the hydrate over relative humidity (moisture sorption curve): stable from 5 to 90% RH
[3]; at 90% RH, 25° C.
  maximum moisture uptake: 4.2 wt %
[3]
  XRPD pattern after drying: consistent with Form A
[4]; 0 and 95% RH for one week
  change in form upon humidity exposure: did not show a change in form
[5]; [9]
  XRPD (1 week): Form A
  XRPD (1 day): Form A
[5]; 20 mM phosphate buffer
  pH (final, 1 week): 3.3
[5]; DI water and 20 mM phosphate buffer (pH 3.2), thermodynamic from solid, DI water and phosphate buffer slurries, after equilibration overnight and 1 week, room temperature
  solubility: 3000 to 4000 µg/mL (≈ 5.94 to 7.93 mM)
[5]; [10]
  XRPD (1 week): Form A
  XRPD (1 day): Form A
[5]; DI water
  pH (final, 1 week): 5.0
[5]; aqueous buffer, thermodynamic from solid, 20 mM phosphate buffer, initial pH 3.2, room temperature
  solubility at 1 day: 3.3 mg/mL (≈ 6.54 mM)
[5]; pH 3.2, aqueous buffer, thermodynamic from solid, 20 mM phosphate buffer, room temperature
  solubility at 1 week: 4.1 mg/mL (≈ 8.12 mM)
[5]; pH 8.1, thermodynamic from solid, DI water, room temperature
  solubility at 1 week: 4.3 mg/mL (≈ 8.52 mM)
[5]; thermodynamic from solid, DI water, initial pH 8.1, room temperature
  solubility at 1 day: 3.1 mg/mL (≈ 6.14 mM)
[6]; dried under vacuum at 40° C., time at temperature 16
  Residual Amt of MeCN by OVI (ppm): 1353 ppm
[6]; dried under vacuum at 55° C., time at temperature 24 (total 40)
  Residual Amt of MeCN by OVI (ppm): 1303 ppm
[6]; dried under vacuum at 70° C., time at temperature 24 (total 64)
  Residual Amt of MeCN by OVI (ppm): 1113 ppm
[6]; dried under vacuum at 85° C., time at temperature 72 (total 136)
  Residual Amt of MeCN by OVI (ppm): 670 ppm

## CCS(=O)(=O)c1cccc(-c2cc(C(=O)NC3CCN(C)CC3)c(C)c3[nH]c4ncc(C)cc4c23)c1 [Form C]
[2]
  water content by KF: 1.4%
[3]; 25° C.
  hygroscopicity (moisture sorption curve): slightly hygroscopic
  hysteresis upon desorption: not observed
[3]; at 90% RH, 25° C.
  maximum water uptake: 1.9%
[3]
  XRPD pattern after drying: consistent to the starting form
[4]; 95% RH for one week
  form after humidity exposure: converted to Form A
[7]
  form after slurry in non-aqueous solvents: stable anhydrate form in non-aqueous environments
  form isolated after slurry in water: converted to the monohydrate Form A
[8]
  form after acetonitrile/water slurries: converted to the monohydrate Form A

## CCS(=O)(=O)c1cccc(-c2cc(C(=O)NC3CCN(C)CC3)c(C)c3[nH]c4ncc(C)cc4c23)c1 [Form L]
[2]
  water content by KF: 2.9%
[3]; 25° C.
  hygroscopicity (moisture sorption curve): moderately hygroscopic
  hysteresis upon desorption: not observed
[3]; at 90% RH, 25° C.
  maximum water uptake: 3.9%
[3]
  XRPD pattern after drying: same pattern before and after drying
[7]
  form after slurry in non-aqueous solvents: to the anhydrate Form C
  form isolated after slurry in water: convert to the monohydrate Form A

## CCS(=O)(=O)c1cccc(-c2cc(C(=O)NC3CCN(C)CC3)c(C)c3[nH]c4ncc(C)cc4c23)c1 [Form N]
[7]; 1 week slurry in Dioxane (1.0 mL)
  Form (1 wk): C + P
[7]; 1 week slurry in EtOAc (1.0 mL)
  Form (1 wk): C + P
[7]; 1 week slurry in IPA (1.0 mL)
  Form (1 wk): C + P
[7]
  form isolated after slurry in water: Form A
